{
  "source": "ChEMBL document CHEMBL6182925",
  "about": "(J Med Chem, 2025)",
  "key": {"L-type calcium channel": {"target": "L-type calcium channel (Homo sapiens, UniProt O60840+Q01668+Q13698+Q13936)", "test": "Inhibition of Calcium channel L-type (unknown origin) at 10 uM by CEREP analysis relative to control", "type": "protein assay"}, "Homo sapiens [1]": {"organism": "Homo sapiens", "test": "Inhibition of c-MET G1163R mutant (unknown origin) at 100 nM in presence of ATP by HotSpot Kinome Selectivity analysis"}, "[2]": {"test": "AUClast in Balb/c mouse at 10 mg/kg, po", "type": "ADME, organism-based", "settings": "in vivo"}, "BaF3 [3]": {"system": "BaF3", "test": "cells", "settings": "Mus musculus, BaF3, 72 h"}, "[4]": {"test": "Kinetic solubility of compound at pH 2", "type": "physicochemical", "settings": "buffer, read-out: Kinetic_solubility"}, "[5]": {"test": "AUClast in male Sprague-Dawley rat at 10 mg/kg, po", "type": "ADME, organism-based", "settings": "in vivo"}, "BaF3 [6]": {"system": "BaF3", "test": "cells", "settings": "Mus musculus, BaF3, 72 h", "remark": "listed apart in the source"}, "BaF3 [7]": {"system": "BaF3", "test": "cells", "settings": "Mus musculus, BaF3, 72 h", "remark": "listed apart in the source"}, "[8]": {"test": "Antitumor activity against human LU2503 cells xenografted in athymic BALB/c nude mouse at 2 mg/kg, po bid treated for 14 days relative to control", "type": "functional", "settings": "LU2503, 336 h, time 14 day, read-out: TGI"}, "BaF3 [9]": {"system": "BaF3", "test": "cells", "settings": "Mus musculus, BaF3, 72 h", "remark": "listed apart in the source"}, "BaF3 [10]": {"system": "BaF3"}, "[11]": {"target": "5-hydroxytryptamine receptor 2B (Homo sapiens) (UniProt P41595)", "sequence (P41595 whole entry)": "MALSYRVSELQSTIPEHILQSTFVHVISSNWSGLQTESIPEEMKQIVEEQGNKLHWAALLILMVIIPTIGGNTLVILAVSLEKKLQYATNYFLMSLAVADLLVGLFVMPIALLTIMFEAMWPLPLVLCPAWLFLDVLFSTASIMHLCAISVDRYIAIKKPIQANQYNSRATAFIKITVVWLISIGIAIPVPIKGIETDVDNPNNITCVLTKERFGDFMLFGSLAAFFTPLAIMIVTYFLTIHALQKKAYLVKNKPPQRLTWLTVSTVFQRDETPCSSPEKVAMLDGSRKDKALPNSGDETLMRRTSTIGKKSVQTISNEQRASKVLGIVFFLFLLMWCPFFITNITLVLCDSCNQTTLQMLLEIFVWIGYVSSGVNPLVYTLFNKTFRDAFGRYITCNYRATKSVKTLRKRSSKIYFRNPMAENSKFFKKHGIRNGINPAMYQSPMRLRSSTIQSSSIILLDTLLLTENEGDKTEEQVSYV", "test": "Inhibition of 5-HT2B receptor (unknown origin) at 10 uM by CEREP analysis relative to control"}, "[12]": {"test": "AUCfree in dog measured for 28 days", "type": "ADME, Canis lupus familiaris", "settings": "in vivo, 672 h, time 28 day"}, "Homo sapiens [13]": {"organism": "Homo sapiens", "test": "Inhibition of c-MET L1195X/F1200X mutant (unknown origin) at 100 nM in presence of ATP by HotSpot Kinome Selectivity analysis"}, "BaF3 [14]": {"system": "BaF3", "test": "Antitumor activity against mouse BaF3 cells harboring TPR-D1228N mutant cells allografted in athymic BALB/c nude mouse at 6 mg/kg, po bid treated for 10 days relative to control", "type": "functional", "settings": "BaF3, 240 h, time 10 day, read-out: TGI"}, "BaF3 [15]": {"system": "BaF3", "test": "cells", "settings": "Mus musculus, BaF3, 72 h", "remark": "listed apart in the source"}, "Mus musculus": {"system": "Mus musculus", "test": "In vivo inhibition of MET phosphorylation in human EBC-1 cells xenografted in athymic BALB/c nude mouse administered orally measured after 1 hr post-dose", "type": "functional, organism-based", "settings": "dose 2-60 mg/kg, route po"}, "[16]": {"test": "Toxicity in athymic BALB/c nude mouse allografted with mouse BaF3 cells harboring TPR-D1228N mutant assessed as body weight loss at 2 to 60 mg/kg, po bid treated for 10 to 21 days", "type": "organism-based", "settings": "in vivo, dose lower 2 mg/kg, time lower 10 day, dose upper 60 mg/kg, time upper 21 day"}, "[17]": {"test": "Antitumor activity against human LU2503 cells xenografted in athymic BALB/c nude mouse at 20 mg/kg, po bid treated for 14 days relative to control", "type": "functional", "settings": "LU2503, 336 h, time 14 day, read-out: TGI"}, "[18]": {"test": "Oral bioavailability in male Beagle dog at 10 mg/kg", "type": "ADME, organism-based, Canis lupus familiaris", "settings": "in vivo"}, "BaF3 [19]": {"system": "BaF3", "test": "cells", "settings": "Mus musculus, BaF3, 72 h", "remark": "listed apart in the source"}, "BaF3 [20]": {"system": "BaF3", "test": "cells", "settings": "Mus musculus, BaF3, 72 h", "remark": "listed apart in the source"}, "AhR": {"target": "AhR (Homo sapiens, UniProt P35869)", "sequence (P35869 whole entry)": "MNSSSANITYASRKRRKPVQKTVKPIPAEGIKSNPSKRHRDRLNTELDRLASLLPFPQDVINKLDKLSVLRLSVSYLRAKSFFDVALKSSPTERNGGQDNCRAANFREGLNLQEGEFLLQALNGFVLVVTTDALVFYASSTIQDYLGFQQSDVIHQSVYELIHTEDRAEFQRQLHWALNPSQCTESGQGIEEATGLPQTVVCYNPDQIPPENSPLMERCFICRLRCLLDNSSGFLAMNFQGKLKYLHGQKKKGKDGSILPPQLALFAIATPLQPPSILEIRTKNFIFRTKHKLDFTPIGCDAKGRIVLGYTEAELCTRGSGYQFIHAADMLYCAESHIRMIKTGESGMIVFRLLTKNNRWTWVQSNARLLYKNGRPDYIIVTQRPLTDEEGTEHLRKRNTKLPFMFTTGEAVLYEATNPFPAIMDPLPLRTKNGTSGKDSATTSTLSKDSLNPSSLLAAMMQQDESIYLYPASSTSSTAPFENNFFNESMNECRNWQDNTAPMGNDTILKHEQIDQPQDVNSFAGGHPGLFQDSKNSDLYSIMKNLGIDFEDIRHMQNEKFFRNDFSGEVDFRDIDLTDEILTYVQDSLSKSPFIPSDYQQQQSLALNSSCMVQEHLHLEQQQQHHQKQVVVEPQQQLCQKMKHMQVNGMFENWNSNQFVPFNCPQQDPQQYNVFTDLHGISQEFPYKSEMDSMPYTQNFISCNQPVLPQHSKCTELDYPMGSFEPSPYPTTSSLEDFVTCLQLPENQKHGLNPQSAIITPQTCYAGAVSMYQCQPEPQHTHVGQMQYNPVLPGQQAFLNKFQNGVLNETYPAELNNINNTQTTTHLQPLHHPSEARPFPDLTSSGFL", "test": "Induction of AhR (unknown origin) assessed as fold increase in activity at 1 uM relative to control", "type": "toxicity", "settings": "read-out: FC"}, "BaF3 [21]": {"system": "BaF3", "test": "cells", "settings": "Mus musculus, BaF3, 72 h", "remark": "listed apart in the source"}, "EBC-1": {"system": "EBC-1", "test": "Antitumor activity against human EBC-1 cells xenografted in athymic BALB/c nude mouse at 60 mg/kg, po bid treated for 21 days relative to control", "type": "functional", "settings": "EBC-1, 504 h, time 21 day, read-out: TGI"}, "[22]": {"test": "Toxicity in rat assessed as drug tolerance measured for 28 days", "settings": "in vivo, 672 h, time 28 day"}, "[23]": {"test": "AUClast in male Beagle dog at 10 mg/kg, po", "type": "ADME, organism-based, Canis lupus familiaris", "settings": "in vivo"}, "[24]": {"system": "Hepatocyte growth factor receptor (Homo sapiens), P08581 [Y1235D]", "sequence (P08581 whole entry Y1235D)": "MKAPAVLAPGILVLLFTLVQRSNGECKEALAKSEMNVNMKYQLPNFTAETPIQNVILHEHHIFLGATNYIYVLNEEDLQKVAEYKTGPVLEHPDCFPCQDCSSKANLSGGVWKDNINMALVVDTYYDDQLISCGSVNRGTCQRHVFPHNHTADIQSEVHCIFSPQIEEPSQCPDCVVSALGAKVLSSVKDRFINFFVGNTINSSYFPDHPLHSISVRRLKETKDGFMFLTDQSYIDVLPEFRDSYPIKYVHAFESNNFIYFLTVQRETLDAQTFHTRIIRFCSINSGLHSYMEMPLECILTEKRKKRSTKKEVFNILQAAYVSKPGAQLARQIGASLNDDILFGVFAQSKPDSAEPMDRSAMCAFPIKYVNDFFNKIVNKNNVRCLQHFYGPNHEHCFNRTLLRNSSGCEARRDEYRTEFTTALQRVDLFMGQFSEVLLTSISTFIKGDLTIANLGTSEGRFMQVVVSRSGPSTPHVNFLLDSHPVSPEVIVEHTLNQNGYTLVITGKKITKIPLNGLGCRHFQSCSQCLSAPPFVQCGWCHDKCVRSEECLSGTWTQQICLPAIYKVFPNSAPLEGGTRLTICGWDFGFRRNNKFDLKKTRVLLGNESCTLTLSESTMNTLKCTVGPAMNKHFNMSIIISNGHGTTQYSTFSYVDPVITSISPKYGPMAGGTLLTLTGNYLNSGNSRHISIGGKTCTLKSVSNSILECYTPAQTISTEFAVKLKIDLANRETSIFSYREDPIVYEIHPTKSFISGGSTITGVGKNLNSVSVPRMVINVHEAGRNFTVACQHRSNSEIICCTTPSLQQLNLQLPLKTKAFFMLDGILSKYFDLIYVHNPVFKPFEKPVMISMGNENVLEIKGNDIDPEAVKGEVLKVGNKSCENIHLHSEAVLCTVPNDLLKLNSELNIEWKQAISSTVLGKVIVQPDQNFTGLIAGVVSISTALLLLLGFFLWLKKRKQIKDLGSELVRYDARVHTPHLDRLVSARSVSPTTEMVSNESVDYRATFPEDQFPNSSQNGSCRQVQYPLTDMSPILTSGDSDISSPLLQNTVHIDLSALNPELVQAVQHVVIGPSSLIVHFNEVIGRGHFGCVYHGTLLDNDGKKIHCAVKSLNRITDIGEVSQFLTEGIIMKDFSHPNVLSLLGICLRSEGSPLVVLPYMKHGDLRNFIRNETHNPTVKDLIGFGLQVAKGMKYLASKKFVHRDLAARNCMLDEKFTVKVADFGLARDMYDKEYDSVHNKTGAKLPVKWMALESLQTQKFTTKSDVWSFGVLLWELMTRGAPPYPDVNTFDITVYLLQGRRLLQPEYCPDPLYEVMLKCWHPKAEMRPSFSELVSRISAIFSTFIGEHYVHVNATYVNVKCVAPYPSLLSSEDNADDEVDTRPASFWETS", "test": "Inhibition of c-MET Y1235D mutant (unknown origin) at 100 nM in presence of ATP by HotSpot Kinome Selectivity analysis"}, "Homo sapiens [25]": {"organism": "Homo sapiens", "test": "Inhibition of c-MET D1228X/Y1230X mutant (unknown origin) at 100 nM in presence of ATP by HotSpot Kinome Selectivity analysis"}, "[26]": {"test": "Clearance in male Sprague-Dawley rat at 3 mg/kg, iv", "type": "ADME, organism-based", "settings": "in vivo"}, "[27]": {"test": "Toxicity in athymic BALB/c nude mouse xenografted with human LU2503 cells assessed as body weight loss at 2 to 60 mg/kg, po bid treated for 10 to 21 days", "type": "organism-based", "settings": "in vivo, dose lower 2 mg/kg, time lower 10 day, dose upper 60 mg/kg, time upper 21 day"}, "BaF3 [28]": {"system": "BaF3", "test": "Antitumor activity against mouse BaF3 cells harboring TPR-D1228N mutant cells allografted in athymic BALB/c nude mouse at 2 mg/kg, po bid treated for 10 days relative to control", "type": "functional", "settings": "BaF3, 240 h, time 10 day, read-out: TGI"}, "BaF3 [29]": {"system": "BaF3", "test": "cells", "settings": "Mus musculus, BaF3, 72 h", "remark": "listed apart in the source"}, "PXR": {"target": "PXR (Homo sapiens, UniProt O75469)", "sequence (O75469 whole entry)": "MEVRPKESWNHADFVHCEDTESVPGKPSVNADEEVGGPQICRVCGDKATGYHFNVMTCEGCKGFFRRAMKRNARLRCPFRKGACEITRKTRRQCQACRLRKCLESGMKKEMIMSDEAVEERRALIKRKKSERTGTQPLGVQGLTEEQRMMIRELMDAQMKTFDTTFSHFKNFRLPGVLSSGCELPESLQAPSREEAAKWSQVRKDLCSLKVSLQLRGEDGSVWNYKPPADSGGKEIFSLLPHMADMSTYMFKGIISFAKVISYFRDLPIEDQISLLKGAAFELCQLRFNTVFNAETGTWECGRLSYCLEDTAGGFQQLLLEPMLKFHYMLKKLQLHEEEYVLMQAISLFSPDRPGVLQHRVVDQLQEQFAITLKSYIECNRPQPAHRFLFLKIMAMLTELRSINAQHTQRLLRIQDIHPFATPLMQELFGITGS", "test": "Induction of PXR (unknown origin) assessed as fold increase in activity at 1 uM relative to control", "type": "toxicity", "settings": "read-out: FC"}, "[30]": {"test": "Oral bioavailability in male Sprague-Dawley rat at 10 mg/kg", "type": "ADME, organism-based", "settings": "in vivo"}, "[31]": {"test": "AUCfree in rat measured for 28 days", "type": "ADME", "settings": "in vivo, 672 h, time 28 day"}, "BaF3 [32]": {"system": "BaF3", "test": "cells", "settings": "Mus musculus, BaF3, 72 h", "remark": "listed apart in the source"}, "[33]": {"target": "T1, Alpha-2A adrenergic receptor (Homo sapiens) (UniProt P08913)", "T1 sequence (whole entry)": "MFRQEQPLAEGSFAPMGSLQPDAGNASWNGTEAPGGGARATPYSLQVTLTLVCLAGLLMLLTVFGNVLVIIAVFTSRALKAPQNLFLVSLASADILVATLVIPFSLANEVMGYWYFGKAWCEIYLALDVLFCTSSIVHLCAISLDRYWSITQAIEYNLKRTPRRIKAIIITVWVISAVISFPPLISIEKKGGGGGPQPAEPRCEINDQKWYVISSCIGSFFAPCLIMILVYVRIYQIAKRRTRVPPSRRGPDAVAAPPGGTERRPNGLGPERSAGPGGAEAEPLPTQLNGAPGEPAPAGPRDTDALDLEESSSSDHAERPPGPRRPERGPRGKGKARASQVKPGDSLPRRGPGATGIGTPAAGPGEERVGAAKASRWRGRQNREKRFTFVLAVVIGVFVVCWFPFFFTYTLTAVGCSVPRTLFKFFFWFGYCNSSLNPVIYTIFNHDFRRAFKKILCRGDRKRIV", "test": "Inhibition of alpha 2A adrenergic receptor (unknown origin) at 10 uM by CEREP analysis relative to control"}, "[34]": {"test": "Half life in male Sprague-Dawley rat at 3 mg/kg, iv", "type": "ADME, organism-based", "settings": "in vivo"}, "[35]": {"target": "cGMP-inhibited 3',5'-cyclic phosphodiesterase 3A (Homo sapiens) (UniProt Q14432)", "sequence (Q14432 whole entry)": "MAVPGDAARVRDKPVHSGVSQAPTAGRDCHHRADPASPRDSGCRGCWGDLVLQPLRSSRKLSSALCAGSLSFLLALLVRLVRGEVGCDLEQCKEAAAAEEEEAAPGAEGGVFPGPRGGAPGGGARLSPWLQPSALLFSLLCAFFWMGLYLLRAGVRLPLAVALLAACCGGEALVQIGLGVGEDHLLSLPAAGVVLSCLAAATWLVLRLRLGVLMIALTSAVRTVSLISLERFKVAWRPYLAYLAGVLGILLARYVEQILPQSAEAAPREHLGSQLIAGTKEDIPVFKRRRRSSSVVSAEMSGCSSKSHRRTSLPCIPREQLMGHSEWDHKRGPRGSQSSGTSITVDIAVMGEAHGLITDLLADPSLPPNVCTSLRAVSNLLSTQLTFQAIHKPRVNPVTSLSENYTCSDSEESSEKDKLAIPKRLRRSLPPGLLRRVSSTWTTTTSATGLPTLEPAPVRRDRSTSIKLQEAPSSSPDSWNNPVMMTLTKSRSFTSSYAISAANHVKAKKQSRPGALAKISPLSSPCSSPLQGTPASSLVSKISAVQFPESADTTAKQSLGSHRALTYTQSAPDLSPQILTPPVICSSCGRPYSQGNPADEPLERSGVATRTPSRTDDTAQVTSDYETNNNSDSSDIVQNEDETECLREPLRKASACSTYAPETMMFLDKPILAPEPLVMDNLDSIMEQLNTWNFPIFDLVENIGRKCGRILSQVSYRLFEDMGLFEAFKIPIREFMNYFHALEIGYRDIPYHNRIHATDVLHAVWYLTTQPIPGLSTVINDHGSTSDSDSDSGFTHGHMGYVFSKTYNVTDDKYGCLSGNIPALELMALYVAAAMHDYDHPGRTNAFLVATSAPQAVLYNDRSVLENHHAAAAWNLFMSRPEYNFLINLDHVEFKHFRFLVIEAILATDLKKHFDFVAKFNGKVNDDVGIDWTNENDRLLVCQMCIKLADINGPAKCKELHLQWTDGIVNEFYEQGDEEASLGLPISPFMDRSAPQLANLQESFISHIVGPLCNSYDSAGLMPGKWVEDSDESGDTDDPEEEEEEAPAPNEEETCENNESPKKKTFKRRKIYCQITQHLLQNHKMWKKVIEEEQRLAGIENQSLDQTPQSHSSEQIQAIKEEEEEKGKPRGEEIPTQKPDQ", "test": "Inhibition of PDE3A (unknown origin) at 10 uM by CEREP analysis relative to control"}, "[36]": {"test": "Kinetic solubility of compound at pH 4.5", "type": "physicochemical", "settings": "buffer, read-out: Kinetic_solubility"}},
  "note": "pEC50: −log10 of the molar value. Where “and” joins values, the source holds several entries; their conditions need not be identical. Identical values can stand only once.",
  "data": [
    {"smiles": "COc1cc2nccc(Oc3c(F)cc(NC(=O)c4cnccc4OC)cc3F)c2cc1O[C@@H](C)CO", "values": [
      {"measurement": "inhibition at 10 µM", "setting": "L-type calcium channel", "value": -4, "unit": "%"},
      {"measurement": "inhibition", "setting": "Homo sapiens [1]", "value": 63, "unit": "%"},
      {"measurement": "AUC(0-t)", "setting": "[2]", "value": 13500, "unit": "ng·h/mL"},
      {"measurement": "pEC50", "setting": "BaF3 [3]", "value": 8.04},
      {"measurement": "solubility kinetic", "setting": "[4]", "value": 288, "unit": "µM"},
      {"measurement": "AUC(0-t)", "setting": "[5]", "value": 18600, "unit": "ng·h/mL"},
      {"measurement": "pEC50", "setting": "BaF3 [6]", "value": 8.49},
      {"measurement": "pEC50", "setting": "BaF3 [7]", "value": 8.07},
      {"measurement": "inhibition in vivo at 2 mg/kg", "setting": "[8]", "value": 43, "unit": "%"},
      {"measurement": "pEC50", "setting": "BaF3 [9]", "value": 7.74},
      {"measurement": "pEC50", "setting": "BaF3 [10]", "value": "7.96 and 8.29"},
      {"measurement": "inhibition", "setting": "[11]", "value": 48, "unit": "%"},
      {"measurement": "fAUC", "setting": "[12]", "value": 5100, "unit": "ng·h/mL"},
      {"measurement": "inhibition", "setting": "Homo sapiens [13]", "value": -4, "unit": "%"},
      {"measurement": "inhibition in vivo at 6 mg/kg", "setting": "BaF3 [14]", "value": 44, "unit": "%"},
      {"measurement": "pEC50", "setting": "BaF3 [15]", "value": 6.27},
      {"measurement": "inhibition", "setting": "Mus musculus", "value": "Dose-dependent-effect"},
      {"measurement": "Activity", "setting": "[16]", "value": "Non-toxic"},
      {"measurement": "inhibition in vivo at 20 mg/kg", "setting": "[17]", "value": 110, "unit": "%"},
      {"measurement": "bioavailability", "setting": "[18]", "value": 56, "unit": "%"},
      {"measurement": "pEC50", "setting": "BaF3 [19]", "value": 7.29},
      {"measurement": "pEC50", "setting": "BaF3 [20]", "value": 8.60},
      {"measurement": "fold induction at 1 µM", "setting": "AhR", "value": "< 1.5"},
      {"measurement": "pEC50", "setting": "BaF3 [21]", "value": 8.11},
      {"measurement": "inhibition in vivo at 60 mg/kg", "setting": "EBC-1", "value": 110, "unit": "%"},
      {"measurement": "Activity", "setting": "[22]", "value": "Non-toxic"},
      {"measurement": "AUC(0-t)", "setting": "[23]", "value": 26400, "unit": "ng·h/mL"},
      {"measurement": "inhibition", "setting": "[24]", "value": 85, "unit": "%"},
      {"measurement": "inhibition", "setting": "Homo sapiens [25]", "value": 49, "unit": "%"},
      {"measurement": "clearance", "setting": "[26]", "value": 11.2, "unit": "mL/min/kg"},
      {"measurement": "Activity", "setting": "[27]", "value": "Non-toxic"},
      {"measurement": "inhibition in vivo at 2 mg/kg", "setting": "BaF3 [28]", "value": 26, "unit": "%"},
      {"measurement": "pEC50", "setting": "BaF3 [29]", "value": 7.43},
      {"measurement": "fold induction at 1 µM", "setting": "PXR", "value": "< 1.5"},
      {"measurement": "bioavailability", "setting": "[30]", "value": 100, "unit": "%"},
      {"measurement": "fAUC", "setting": "[31]", "value": 5100, "unit": "ng·h/mL"},
      {"measurement": "pEC50", "setting": "BaF3 [32]", "value": 7.72},
      {"measurement": "inhibition", "setting": "[33]", "value": 6, "unit": "%"},
      {"measurement": "half-life", "setting": "[34]", "value": 4.9, "unit": "h"},
      {"measurement": "inhibition", "setting": "[35]", "value": 16, "unit": "%"},
      {"measurement": "solubility kinetic", "setting": "[36]", "value": 145, "unit": "µM"}
    ]}
  ]
}
